Assay results from patent US5424290A, “Biologically active peptides and uses therefor” (Magainin Pharmaceuticals Inc., priority 1992, dated 1995).
Residues, ends and D or L forms follow the SMILES beside them.

Experiments:
Format in all cases: cell-based
[1] = test system: P. aeruginosa strain ATCC 27853; test: Minimal Inhibitory Concentration, microtiter broth dilution antibacterial assay; settings: P. aeruginosa ATCC 27853; Mueller Hinton broth; 16-20 hours at 37° C.; lowest concentration giving a clear well
Source text: (§1) Table I, which follows, indicates the Minimal Inhibitory Concentration (MIC) in μg/ml of Peptides (SEQ ID NO:1) through (SEQ ID NO:4), (SEQ ID NO:6) through (SEQ ID NO:13), (SEQ ID NO:16), (SEQ ID NO:20), (SEQ ID NO:21) and (SEQ ID NO:23) against S. aureus strain ATCC 25923, P. aeruginosa strain ATCC 27853, E. coli strain 25922, and Candida albicans. The procedure for the antibacterial assay is based upon the guidelines of the National Committee for Clinical Laboratory Standards, Document M7-T2, Volume 8, No. 8, 1988. Stock solutions of the peptides hereinabove mentioned are prepared at a concentration of 512 μg/ml in sterile deionized distilled water and stored at […]. Each peptide is a C-terminal amide and may or may not be acetylated at the N-terminus. An acetyl group at the N-terminus is indicated by an X. The stock peptide solution is diluted in serial dilutions (1:2) down the wells of a microtiter plate so that the final concentrations of peptides in the wells are 0.25, 0.50, 1, 2, 4, 8, 16, 32, 64, 128, and 256 μg/ml. 1-5×10^5 CFUs/ml of either S. aureus ATCC 25923, E. coli ATCC 25922, P. aeruginosa ATCC 27853, or Candida albicans were added to the wells in full strength Mueller Hinton broth (BBL 11443) from a mid-log culture. The inoculum is standardized spectrophotometrically at 600 nm and is verified by colony counts. The plates are incubated for 16-20 hours at 37° C., and the minimal inhibitory concentration (MIC) for each peptide is determined. Minimal inhibitory concentration is defined as the lowest concentration of peptide which produces a clear well in the microtiter plate.

[2] = test system: S. aureus strain ATCC 25923; test: as above; settings: S. aureus ATCC 25923; Mueller Hinton broth; 16-20 hours at 37° C.; lowest concentration giving a clear well
Source text: as §1

Candida albicans = test: Minimal Inhibitory Concentration, microtiter broth dilution assay; settings: Mueller Hinton broth, 16-20 hours at 37° C., lowest concentration giving a clear well
Source text: as §1

E. coli ATCC 25922 = test: Minimal Inhibitory Concentration, microtiter broth dilution antibacterial assay; settings: Mueller Hinton broth, 16-20 hours at 37° C., lowest concentration giving a clear well
Source text: as §1

SMILES: CC[C@H](C)[C@H](NC(=O)CN)C(=O)NCC(=O)N[C@@H](CCCCN)C(=O)N[C@H](C(=O)N[C@@H](CC(C)C)C(=O)N[C@@H](CCCCN)C(=O)N[C@@H](CCCCN)C(=O)N[C@@H](C)C(=O)N[C@@H](CCCCN)C(=O)N[C@@H](CCCCN)C(=O)N[C@H](C(=O)NCC(=O)N[C@@H](CCCCN)C(=O)N[C@@H](C)C(=O)N[C@H](C(=O)N[C@H](C(=O)N[C@@H](CCCCN)C(=O)N[C@H](C(=O)N[C@@H](CC(C)C)C(=O)N[C@@H](CCCCN)C(=O)N[C@@H](CCCCN)C(N)=O)[C@@H](C)CC)C(C)C)[C@@H](C)CC)[C@@H](C)CC)[C@@H](C)CC [(SEQ ID NO: 4)-NH2] (H-GIGKILKKAKKIGKAIVKILKK-NH2)
- Minimal Inhibitory Concentration P. aeruginosa [1]: 4 µg/mL
- Minimal Inhibitory Concentration S. aureus [2]: 16 µg/mL
- Minimal Inhibitory Concentration C. albicans (Candida albicans): 64 µg/mL

SMILES: CC[C@H](C)[C@H](N)C(=O)N[C@@H](CCCCN)C(=O)N[C@@H](CCCCN)C(=O)N[C@@H](Cc1ccccc1)C(=O)N[C@@H](CC(C)C)C(=O)N[C@@H](CCCCN)C(=O)N[C@@H](CCCCN)C(=O)N[C@@H](C)C(=O)N[C@@H](CCCCN)C(=O)N[C@@H](CCCCN)C(=O)N[C@@H](Cc1ccccc1)C(=O)NCC(=O)N[C@@H](CCCCN)C(=O)N[C@@H](CCCCN)C(=O)N[C@@H](Cc1ccccc1)C(=O)N[C@@H](CCCCN)C(=O)N[C@@H](CCCCN)C(=O)N[C@H](C(=O)N[C@@H](CC(C)C)C(=O)N[C@@H](CCCCN)C(=O)N[C@@H](CCCCN)C(N)=O)[C@@H](C)CC [(SEQ ID NO: 2)-NH2] (H-IKKFLKKAKKFGKKFKKILKK-NH2)
- Minimal Inhibitory Concentration E. coli (E. coli ATCC 25922): 16 µg/mL
- Minimal Inhibitory Concentration P. aeruginosa [1]: 8 µg/mL

SMILES: CC[C@H](C)[C@H](NC(=O)CNC(=O)[C@H](CCCNC(=N)N)NC(=O)[C@@H](N)CCCNC(=N)N)C(=O)NCC(=O)N[C@@H](CCCCN)C(=O)N[C@@H](Cc1ccccc1)C(=O)N[C@@H](CC(C)C)C(=O)N[C@@H](CCCCN)C(=O)N[C@@H](CCCCN)C(=O)N[C@@H](C)C(=O)N[C@@H](CCCCN)C(=O)N[C@@H](CCCCN)C(=O)N[C@@H](Cc1ccccc1)C(=O)NCC(=O)N[C@@H](CCCCN)C(=O)N[C@@H](C)C(=O)N[C@@H](Cc1ccccc1)C(=O)N[C@H](C(=O)N[C@@H](CCCCN)C(=O)N[C@H](C(=O)N[C@@H](CC(C)C)C(=O)N[C@@H](CCCCN)C(=O)N[C@@H](CCCCN)C(=O)NCC(N)=O)[C@@H](C)CC)C(C)C [(SEQ ID NO: 13)-NH2] (H-RRGIGKFLKKAKKFGKAFVKILKKG-NH2)
- Minimal Inhibitory Concentration P. aeruginosa [1]: 4 µg/mL
- Minimal Inhibitory Concentration C. albicans (Candida albicans): 64 µg/mL

SMILES: CC[C@H](C)[C@H](N)C(=O)NCC(=O)N[C@@H](CCCCN)C(=O)N[C@@H](Cc1ccccc1)C(=O)N[C@@H](CC(C)C)C(=O)N[C@@H](CCCCN)C(=O)N[C@@H](CCCCN)C(=O)N[C@@H](C)C(=O)N[C@@H](CCCCN)C(=O)N[C@@H](CCCCN)C(=O)N[C@@H](Cc1ccccc1)C(=O)NCC(=O)N[C@@H](CCCCN)C(=O)N[C@@H](CCCCN)C(=O)N[C@@H](Cc1ccccc1)C(=O)N[C@@H](CCCCN)C(=O)N[C@@H](CCCCN)C(=O)N[C@@H](CCC(=O)O)C(=O)N[C@H](C(=O)N[C@@H](CCCCN)C(=O)N[C@@H](CCCCN)C(N)=O)[C@@H](C)CC [(SEQ ID NO: 3)-NH2] (H-IGKFLKKAKKFGKKFKKEIKK-NH2)
- Minimal Inhibitory Concentration P. aeruginosa [1]: 16 µg/mL
- Minimal Inhibitory Concentration S. aureus [2]: 32 µg/mL

SMILES: CC[C@H](C)[C@H](NC(=O)CN)C(=O)NCC(=O)N[C@@H](CCCCN)C(=O)N[C@@H](Cc1ccccc1)C(=O)N[C@@H](CC(C)C)C(=O)N[C@@H](CCCCN)C(=O)N[C@@H](CCCCN)C(=O)N[C@@H](C)C(=O)N[C@@H](CCCCN)C(=O)N[C@@H](CCCCN)C(=O)N[C@@H](Cc1ccccc1)C(=O)NCC(=O)N[C@@H](CCCCN)C(=O)N[C@@H](C)C(=O)N[C@@H](Cc1ccccc1)C(=O)N[C@H](C(=O)N[C@@H](CCCCN)C(=O)N[C@H](C(=O)N[C@@H](CC(C)C)C(=O)N[C@@H](CCCCN)C(=O)N[C@@H](CCCCN)C(N)=O)[C@@H](C)CC)[C@@H](C)CC [(SEQ ID NO: 19)-NH2] (H-GIGKFLKKAKKFGKAFIKILKK-NH2)
- Minimal Inhibitory Concentration P. aeruginosa [1]: 8 µg/mL
- Minimal Inhibitory Concentration S. aureus [2]: 8 µg/mL

SMILES: CC[C@H](C)[C@H](NC(=O)CN)C(=O)NCC(=O)N[C@@H](CCCCN)C(=O)N[C@@H](Cc1ccccc1)C(=O)N[C@@H](CC(C)C)C(=O)N[C@@H](CCCCN)C(=O)N[C@@H](CCCCN)C(=O)N[C@@H](C)C(=O)N[C@@H](CCCCN)C(=O)N[C@@H](CCCCN)C(=O)N[C@@H](Cc1ccccc1)C(=O)NCC(=O)N[C@@H](CCCCN)C(=O)N[C@@H](C)C(=O)N[C@@H](Cc1ccccc1)C(=O)N[C@H](C(=O)N[C@@H](CCCCN)C(=O)N[C@H](C(=O)N[C@H](C(=O)N[C@@H](CCCCN)C(=O)N[C@@H](CCCCN)C(N)=O)C(C)C)[C@@H](C)CC)C(C)C [(SEQ ID NO: 6)-NH2] (H-GIGKFLKKAKKFGKAFVKIVKK-NH2)
- Minimal Inhibitory Concentration E. coli (E. coli ATCC 25922): 16 µg/mL
- Minimal Inhibitory Concentration P. aeruginosa [1]: 16 µg/mL
- Minimal Inhibitory Concentration S. aureus [2]: 32 µg/mL

SMILES: CC[C@H](C)[C@H](NC(=O)CN)C(=O)NCC(=O)N[C@@H](CCCCN)C(=O)N[C@@H](Cc1ccccc1)C(=O)N[C@@H](CC(C)C)C(=O)N[C@@H](CCCCN)C(=O)N[C@@H](CCCCN)C(=O)N[C@@H](C)C(=O)N[C@@H](CCCCN)C(=O)N[C@@H](CCCCN)C(=O)N[C@@H](Cc1ccccc1)C(=O)NCC(=O)N[C@@H](CCCCN)C(=O)N[C@@H](C)C(=O)N[C@@H](Cc1ccccc1)C(=O)N[C@H](C(=O)N[C@@H](CCCCN)C(=O)N[C@H](C(=O)N[C@@H](CC(C)C)C(=O)N[C@@H](CCCCN)C(=O)N[C@@H](CCCCN)C(=O)N[C@@H](CCCNC(=N)N)C(N)=O)[C@@H](C)CC)C(C)C [(SEQ ID NO: 8)-NH2] (H-GIGKFLKKAKKFGKAFVKILKKR-NH2)
- Minimal Inhibitory Concentration P. aeruginosa [1]: 4 µg/mL
- Minimal Inhibitory Concentration S. aureus [2]: 16 µg/mL
- Minimal Inhibitory Concentration C. albicans (Candida albicans): 64 µg/mL

SMILES: CC[C@H](C)[C@H](NC(=O)CN)C(=O)NCC(=O)N[C@@H](CCCCN)C(=O)N[C@@H](Cc1ccccc1)C(=O)N[C@@H](CC(C)C)C(=O)N[C@@H](CCCCN)C(=O)N[C@@H](CCCCN)C(=O)N[C@@H](C)C(=O)N[C@@H](CCCCN)C(=O)N[C@@H](CCCCN)C(=O)N[C@@H](Cc1ccccc1)C(=O)NCC(=O)N[C@@H](CCCCN)C(=O)N[C@@H](C)C(=O)N[C@@H](Cc1ccccc1)C(=O)N[C@H](C(=O)N[C@@H](CCCCN)C(=O)N[C@H](C(=O)N[C@@H](CC(C)C)C(=O)N[C@@H](CCCCN)C(=O)N[C@@H](CCCCN)C(=O)N[C@@H](CC(N)=O)C(N)=O)[C@@H](C)CC)C(C)C [(SEQ ID NO: 9)-NH2] (H-GIGKFLKKAKKFGKAFVKILKKN-NH2)
- Minimal Inhibitory Concentration P. aeruginosa [1]: 8 µg/mL
- Minimal Inhibitory Concentration S. aureus [2]: 64 µg/mL

SMILES: CC[C@H](C)[C@H](NC(=O)CNC(=O)[C@@H](N)CCSC)C(=O)NCC(=O)N[C@@H](CCCCN)C(=O)N[C@@H](Cc1ccccc1)C(=O)N[C@@H](CC(C)C)C(=O)N[C@@H](CCCCN)C(=O)N[C@@H](CCCCN)C(=O)N[C@@H](C)C(=O)N[C@@H](CCCCN)C(=O)N[C@@H](CCCCN)C(=O)N[C@@H](Cc1ccccc1)C(=O)NCC(=O)N[C@@H](CCCCN)C(=O)N[C@@H](C)C(=O)N[C@@H](Cc1ccccc1)C(=O)N[C@H](C(=O)N[C@@H](CCCCN)C(=O)N[C@H](C(=O)N[C@@H](CC(C)C)C(=O)N[C@@H](CCCCN)C(=O)N[C@@H](CCCCN)C(N)=O)[C@@H](C)CC)C(C)C [(SEQ ID NO: 11)-NH2] (H-MGIGKFLKKAKKFGKAFVKILKK-NH2)
- Minimal Inhibitory Concentration S. aureus [2]: 64 µg/mL
- Minimal Inhibitory Concentration C. albicans (Candida albicans): 64 µg/mL

SMILES: CC[C@H](C)[C@H](NC(=O)CNC(=O)[C@H](CCCNC(=N)N)NC(=O)[C@@H](N)CCCNC(=N)N)C(=O)NCC(=O)N[C@@H](CCCCN)C(=O)N[C@@H](Cc1ccccc1)C(=O)N[C@@H](CC(C)C)C(=O)N[C@@H](CCCCN)C(=O)N[C@@H](CCCCN)C(=O)N[C@@H](C)C(=O)N[C@@H](CCCCN)C(=O)N[C@@H](CCCCN)C(=O)N[C@@H](Cc1ccccc1)C(=O)NCC(=O)N[C@@H](CCCCN)C(=O)N[C@@H](C)C(=O)N[C@@H](Cc1ccccc1)C(=O)N[C@H](C(=O)N[C@@H](CCCCN)C(=O)N[C@H](C(=O)N[C@@H](CC(C)C)C(=O)N[C@@H](CCCCN)C(=O)N[C@@H](CCCCN)C(N)=O)[C@@H](C)CC)C(C)C [(SEQ ID NO: 12)-NH2] (H-RRGIGKFLKKAKKFGKAFVKILKK-NH2)
- Minimal Inhibitory Concentration P. aeruginosa [1]: 32 µg/mL
- Minimal Inhibitory Concentration C. albicans (Candida albicans): 128 µg/mL
